Test results as given in PubChem BioAssay AID687032 (Broad Institute, 2013).
Results filed as inconclusive are left out.

These compounds were tested on IOSE-T80 viability, CellTiterGlo ATP luminescence, 96 h (assay: cytotoxicity in IOSE-T80 ovarian epithelial cells, dose response, selectivity assay for PAX8 inhibitor project, cell-based, cherry-pick (AID 687032)).

Question: `C[C@H](CO)N1C[C@H](C)[C@@H](CN(C)S(=O)(=O)c2ccc(Cl)cc2)OCCCC[C@H](C)Oc2ccc(NS(=O)(=O)c3ccc(Cl)cc3)cc2C1=O` was tested. Which AC50 did it give?
Answer: < 0.26 µM

Question: `CCOC(=O)c1c(-c2ccc(F)cc2)csc1NC(=O)CN1C(=O)NC2(CCCCC2C)C1=O` (stereo not drawn) was tested. Which AC50 did it give?
Answer: 9.07 µM

Question: `COc1ccc(-c2nc3c(c(SCC(=O)Nc4cccc(O)c4)n2)Cc2c(CO)cnc(C)c2O3)cc1` was tested. Which AC50 did it give?
Answer: 8.55 µM

Question: With `CC(C)(C)[C@H](N)C(=O)N[C@H]1CCC2C3CC=C4C[C@@H](O)CC[C@]4(C)C3CC[C@@]21C` (stereo partly drawn) as the compound, how does the AC50 read?
Answer: < 0.26 µM

Question: For `COc1ccccc1C(=O)Nc1nc2ccccc2[nH]1`, which AC50 is on record?
Answer: 9.81 µM

Question: How did the AC50 turn out when `O=C(Nc1ccccc1)NN(C(=O)CCl)c1ccccc1` was run?
Answer: 8.6 µM

Question: Which AC50 does the source give for `O=C(C[C@H]1CC[C@H]2[C@@H](COC[C@@H](O)CN2Cc2ccc(Oc3ccccc3)cc2)O1)N1CCCCC1` here?
Answer: < 0.26 µM

Question: With `C#CCN(C[C@@H]1[C@@H](OC(=O)NCC2CCCCC2)[C@@H](OC(=O)NCC2CCCCC2)Cn2c(=O)ccc(=O)n21)S(=O)(=O)c1ccc(C)cc1` as the compound, how does the AC50 read?
Answer: < 0.26 µM

Question: Which AC50 does the source give for `C[C@@H]1CN([C@H](C)CO)C(=O)c2cc(NS(=O)(=O)c3ccc(Cl)cc3)ccc2O[C@@H](C)CCCCO[C@@H]1CN(C)Cc1ccccc1` here?
Answer: < 0.26 µM

Question: Which AC50 does the source give for `C(=Cc1cnc2ccccc2n1)c1ccc2c(c1)OCO2` here?
Answer: 7.89 µM

Question: How did the AC50 turn out when `CCOc1ccc(-n2c(=S)sc3c(=O)[nH]c(SCC(=O)NCC4CCCO4)nc32)cc1` (stereo not drawn) was run?
Answer: < 0.26 µM

Question: `CC(=O)[C@@]1(O)Cc2c(O)c3c(c(O)c2[C@H](O[C@H]2C[C@H](N)[C@H](O)[C@H](C)O2)C1)C(=O)c1ccccc1C3=O` was tested. Which AC50 did it give?
Answer: 8.8 µM

Question: `COc1ccc(-n2nc3c(N4CCC(C(=O)NCc5cccc(C)c5)CC4)nnc(C)c3c2C)cc1` was tested. Which AC50 did it give?
Answer: < 0.26 µM

Question: With `COc1cc(/C=N/O)ccc1OCc1ccc(C(=O)O)cc1` as the compound, how does the AC50 read?
Answer: 9.95 µM

Question: With `COc1cccc(N2CCN(C(=O)c3ccc(CS(=O)c4ccccc4Cl)o3)CC2)c1` (stereo not drawn) as the compound, how does the AC50 read?
Answer: < 0.26 µM

Question: For `Cc1ccccc1CNC(=O)C1CCCN(c2nnc(C)c3c(C)n(-c4ccccc4)nc23)C1` (stereo not drawn), which AC50 is on record?
Answer: < 0.26 µM

Question: How did the AC50 turn out when `Cc1ccc(-c2csc3ncnc(Sc4nnc(CN5CCCCCC5=O)o4)c23)cc1` was run?
Answer: 8.67 µM

Question: For `COc1cc(-c2cnc3c(NC=O)cc(-c4ccccc4)cn23)cc(OC)c1OC`, which AC50 is on record?
Answer: < 0.26 µM

Question: Which AC50 does the source give for `O=C1c2cccc3cc([N+](=O)[O-])cc(c23)C(=O)N1CCN1CCCC1` here?
Answer: < 0.26 µM

Question: For `CCCC(=O)NC(c1ccc(C(C)C)cc1)c1ccc2cccnc2c1O` (stereo not drawn), which AC50 is on record?
Answer: < 0.26 µM

Question: How did the AC50 turn out when `O=C(NCc1ccco1)C1CCCN(S(=O)(=O)c2ccc(Br)cc2)C1` (stereo not drawn) was run?
Answer: < 0.26 µM

Question: How did the AC50 turn out when `Cn1c(CCN2CCCC2)nc2cc(NS(=O)(=O)c3ccccc3)ccc21` was run?
Answer: < 0.26 µM

Question: For `C[C@@H]1CCCCO[C@@H](CN(C)Cc2ccc(Cl)c(Cl)c2)[C@H](C)CN([C@H](C)CO)C(=O)c2cc(NC(=O)Nc3ccc(C(F)(F)F)cc3)ccc2O1`, which AC50 is on record?
Answer: 35.6 µM

Question: With `CCC(c1nnnn1Cc1ccccc1)N1CCC(n2c(=O)[nH]c3ccccc32)CC1` (stereo not drawn) as the compound, how does the AC50 read?
Answer: < 0.26 µM

Question: How did the AC50 turn out when `C[C@H]1CCCCO[C@H](CN(C)Cc2ccc(C(F)(F)F)cc2)[C@@H](C)CN([C@@H](C)CO)C(=O)c2cc(NC(=O)c3ccccc3)ccc2O1` was run?
Answer: 32.1 µM

Question: `Cn1ncc2c(O/N=C(\N)c3ccc(C(F)(F)F)cc3)ncnc21` was tested. Which AC50 did it give?
Answer: < 0.26 µM

Question: With `COc1ccc(NC(=O)Nc2ccc3c(c2)C(=O)N([C@@H](C)CO)C[C@@H](C)[C@@H](CN(C)CC2CCCCC2)OCCCC[C@@H](C)O3)cc1` as the compound, how does the AC50 read?
Answer: < 0.26 µM

Question: How did the AC50 turn out when `O=C(CCC(=O)c1ccccc1)NCCc1c[nH]c2ccccc12` was run?
Answer: < 0.26 µM

Question: With `Cc1ccsc1/C=N/Nc1cccc(C(=O)O)c1` as the compound, how does the AC50 read?
Answer: 17.3 µM

Question: For `N#Cc1ccc(-c2ccc(C3[C@@H]4CN(C(=O)C5CC5)C[C@H]3N4)cc2)cc1` (stereo partly drawn), which AC50 is on record?
Answer: < 0.26 µM

Question: `C[C@@H]1CN([C@H](C)CO)C(=O)c2cc(NC(=O)Nc3ccccc3)ccc2O[C@@H](C)CCCCO[C@@H]1CN(C)Cc1ccc(C(F)(F)F)cc1` was tested. Which AC50 did it give?
Answer: < 0.26 µM

Question: Which AC50 does the source give for `Cc1noc(C)c1S(=O)(=O)Nc1ccc2c(c1)C(=O)N([C@H](C)CO)C[C@H](C)[C@@H](CN(C)C(=O)Nc1ccc(C(F)(F)F)cc1)OCCCC[C@H](C)O2` here?
Answer: 23.3 µM

Question: For `CN1c2ccc(-c3cccc(F)c3)cc2[C@@H]2[C@@H](CCN2C(=O)Cc2ccccc2)[C@@H]1CO`, which AC50 is on record?
Answer: < 0.26 µM
